Reference: patent US5691344A, “Vasoconstrictive substituted dihydropyranopyridines” (Janssen Pharmaceutica, N.V., priority 1993, dated 1997)
Counter-ions that a name gives are not always drawn.

Tested on: basilar arteries
Assay: Constriction of isolated basilar artery segments of pigs (serotonin-like response, % of response to serotonin)
Settings: Sus scrofa; constrictive response expressed as percentage of previous response to serotonin (3×10^-7 M); Krebs-Henseleit solution, 37° C.; read-out: IC50 (the source's name)
Text: The compounds of formula (I), the pharmaceutically acceptable acid-additionsalts and stereochemically isomeric forms thereof have interesting pharmacological properties: they show 5HT1-like agonistic activity. The compounds of the present invention have a remarkable vasoconstrictor activity. They are useful to prevent and treat conditions which are related to vasodilatation. For instance, they are useful in the treatment of conditions characterized by or associated with cephalic pain, e.g. cluster headache and headache associated with vascular disorders, especially migraine. These compounds are also useful in the treatment of venous insufficiency and in the treatment of conditions associated with hypotension. The vasoconstrictor activity of the compounds of formula (I) can be determined using an in vitro-test as is described in "Instantaneous changes of alpha-adrenoreceptor affinity caused by moderate cooling in canine cutaneous veins" in the American Journal of Physiology 234(4), H330-H337, 1978; or in the test described in the pharmacological example, wherein the serotonin-like response of the compounds of the present invention was tested on the basilar arteries of pigs.
Segments of basilar arteries taken from pigs (anaesthetised with sodium pentobarbital) were mounted for recording of isometric tension in organ baths. The preparations were bathed in Krebs--Henseleit solution. The solution was kept at 37° C. and gassed with a mixture of 95% O2 -5% CO2. The preparations were stretched until a stable basal tension of 2 grams was obtained.
The preparations were made to constrict with serotonin (3×10^-7 M). The response to the addition of serotonin was measured and subsequently the serotonin was washed away. This procedure was repeated until stable responses were obtained. Subsequently the test compound was administered to the organ bath and the constriction of the preparation was measured. This constrictive response was expressed as a percentage of the response to serotonin as measured previously.

Row | Structure (SMILES) | EC50
1 | c1cnc(NCCCNCC2CCc3cccnc3O2)nc1 (racemic) [Co. No. 1, (±)-N-[(3,4-dihydro-2H-pyrano[2,3-b]-pyridin-2-yl)methyl]-N'-2-pyrimidinyl-1,3-propanediamine trihydrochloride. 2-propanolate(1:1). monohydrate] | 0.071 µM
2 | c1cnc2c(c1)CCC(CNCCCNC1=NCCCN1)O2 (racemic) [Co. No. 2, N-[(3,4-dihydro-2H-pyrano[2,3-b]pyridin-2-yl)methyl]-N'-(1,4,5,6-tetrahydro-2-pyrimidinyl)-1,3-propanediamine dihydrochloride. 2-propanolate (2:1). monohydrate] | 0.13 µM
3 | [O-][n+]1cccc2c1OC(CNCCCNc1ncccn1)CC2 (racemic) [Co. No. 3, (±)-N-(3,4-dihydro-2H-pyrano[2,3-b]pyridon-2-yl)methyl]-N'-2-pyrimidinyl-1,3-propanediamine, N-oxide ethanedioate (2:1). monohydrate] | 0.34 µM
4 | CSc1nccc(NCCCNCC2CCc3cccnc3O2)n1 (racemic) [Co. No. 5] | 0.26 µM
5 | c1ccc(NCCCNCC2CCc3cccnc3O2)nc1 (racemic) [Co. No. 6] | 0.12 µM
